Test: xn = mol fraction of the nth substance listed
Details: for viscosity / speed of sound / mass density: 101 kPa, Liquid; for viscosity: Concentric cylinders viscometry; for speed of sound: Pulse-echo method; for mass density: Vibrating tube method; for surface tension liquid-gas: 294 K, Pendant drop shape

CC(CC(C)(C)C)CC(C)(C)C [2,2,4,6,6-pentamethylheptane] + CCCCCCCCCCCCCCCC
Details	mass density [kg/m3]	speed of sound [m/s]	viscosity [mPa·s]
293.15 K, x1 = 0.1261	770.6	1342.7	3.1
293.15 K, x1 = 0.2449	767.8	1327.4	2.79
293.15 K, x1 = 0.4087	763.6	1304.9	2.41
293.15 K, x1 = 0.562	759.5	1282.2	2.09
293.15 K, x1 = 0.7036	755.3	1259.1	1.8
293.15 K, x1 = 0.8368	751	1235.8	1.56
293.15 K, x1 = 1	745.5	1204	1.29
303.15 K, x1 = 0.1261	763.8	1305.2	2.47
303.15 K, x1 = 0.2449	760.9	1290	2.25
303.15 K, x1 = 0.4087	756.8	1267.4	1.97
303.15 K, x1 = 0.562	752.6	1244.5	1.72
303.15 K, x1 = 0.7036	748.3	1221.1	1.5
303.15 K, x1 = 0.8368	743.9	1197.4	1.31
303.15 K, x1 = 1	738.2	1164.9	1.1
313.15 K, x1 = 0.1261	756.8	1268.4	2.03
313.15 K, x1 = 0.2449	754	1253.3	1.86
313.15 K, x1 = 0.4087	749.8	1230.7	1.64
313.15 K, x1 = 0.562	745.6	1207.5	1.44
313.15 K, x1 = 0.7036	741.3	1183.8	1.27
313.15 K, x1 = 0.8368	736.8	1159.8	1.11
313.15 K, x1 = 1	730.9	1126.7	0.941
323.15 K, x1 = 0.1261	749.9	1232.5	1.68
323.15 K, x1 = 0.2449	747.1	1217.2	1.55
323.15 K, x1 = 0.4087	742.9	1194.6	1.38
323.15 K, x1 = 0.562	738.6	1171.2	1.23
323.15 K, x1 = 0.7036	734.2	1147.2	1.09
323.15 K, x1 = 0.8368	729.6	1122.9	0.966
323.15 K, x1 = 1	723.5	1089.3	0.827
333.15 K, x1 = 0.1261	742.9	–	1.42
333.15 K, x1 = 0.2449	740.1	–	1.32
333.15 K, x1 = 0.4087	735.8	–	1.18
333.15 K, x1 = 0.562	731.5	–	1.06
333.15 K, x1 = 0.7036	727	–	0.944
333.15 K, x1 = 0.8368	722.3	–	0.843
333.15 K, x1 = 1	716.1	–	0.726
343.15 K, x1 = 0.1261	735.9	–	1.22
343.15 K, x1 = 0.2449	733	–	1.14
343.15 K, x1 = 0.4087	728.7	–	1.02
343.15 K, x1 = 0.562	724.4	–	0.922
343.15 K, x1 = 0.7036	719.7	–	0.827
343.15 K, x1 = 0.8368	714.9	–	0.742
343.15 K, x1 = 1	708.6	–	0.643
353.15 K, x1 = 0.1261	728.8	–	1.06
353.15 K, x1 = 0.2449	725.9	–	0.988
353.15 K, x1 = 0.4087	721.5	–	0.894
353.15 K, x1 = 0.562	717.1	–	0.81
353.15 K, x1 = 0.7036	712.3	–	0.73
353.15 K, x1 = 0.8368	707.5	–	0.658
353.15 K, x1 = 1	700.9	–	0.573
363.15 K, x1 = 0.1261	721.7	–	0.928
363.15 K, x1 = 0.2449	718.8	–	0.87
363.15 K, x1 = 0.4087	714.4	–	0.791
363.15 K, x1 = 0.562	709.8	–	0.719
363.15 K, x1 = 0.7036	704.9	–	0.651
363.15 K, x1 = 0.8368	700	–	0.589
363.15 K, x1 = 1	693.2	–	0.515
373.15 K, x1 = 0.1261	714.5	–	0.823
373.15 K, x1 = 0.2449	711.7	–	0.773
373.15 K, x1 = 0.4087	707.1	–	0.706
373.15 K, x1 = 0.562	702.5	–	0.644
373.15 K, x1 = 0.7036	697.5	–	0.585
373.15 K, x1 = 0.8368	692.3	–	0.531
373.15 K, x1 = 1	685.5	–	0.467

Details	surface tension liquid-gas [mN/m]
x1 = 0.1261	25.9
x1 = 0.2449	25.3
x1 = 0.4087	24.3
x1 = 0.562	23.8
x1 = 0.7036	23.1
x1 = 0.8368	22.5
x1 = 1	21.8

From the NIST ThermoML archive (doi:10.1021/je400839x)
